Tests used:
Type in all cases: in vivo
[1] = test system: VERSS Veronica sp. (speedwell); assay: Field trial, visual weed control in winter oilseed rape
Method: (§1) Multiple small plot research experiments were conducted to evaluate efficacy and tolerance of winter oilseed rape to compositions described herein. Typical small plots (2-4×4-10 meters (m)) were used in growers' fields under natural conditions with normal commercial cultural practices. Backpack sprayers were used to apply all treatments based on unit area. The methyl ester of formula (I) and propyzamide were tested alone and in combination at varying rates. […] Crop stage was at Growth Stage 39-50. Visual crop injury ratings were collected 32, 49, and 74 days after treatment. […] The reported values are means. […] The following abbreviations are used in Tables 2-4: • GERSS Geranium sp. (cranesbill) • POAAN Poa annua (annual bluegrass) • VERSS Veronica sp.

[2] = test system: GERSS Geranium sp. (cranesbill); assay: as above
Method: as §1

[3] = test system: POAAN Poa annua (annual bluegrass); assay: as above
Method: as §1

[4] = test system: ABUTH Abutilon theophrasti Medik. (velvetleaf); assay: Postemergent herbicidal activity, greenhouse; conditions: foliar, 14 d
Method: (§2) Evaluation of Postemergent Herbicidal Activity. Seeds or nutlets of the desired test plant species were planted in Sun Gro Metro-Mix® 360 planting mixture, which typically has a pH of 6.0 to 6.8 and an organic matter content of about 30 percent, in plastic pots with a surface area of 64 square centimeters (cm^2). […] The plants were grown for 7-21 days (d) in a greenhouse with an approximate 15 hour (h) photoperiod which was maintained at about 23-29° C. during the day and 22-28° C. during the night. Nutrients and water were added on a regular basis and supplemental lighting was provided with overhead metal halide 1000-Watt lamps as necessary. The plants were employed for testing when they reached the first or second true leaf stage.
(§3) A weighed amount, determined by the highest rate to be tested, of each test compound was placed in a 25 milliliter (mL) glass vial and was dissolved in 4 mL of a 97:3 volume per volume (v/v) mixture of acetone and dimethyl sulfoxide (DMSO) to obtain concentrated stock solutions. […] The concentrated stock solutions obtained were diluted with 20 mL of an aqueous mixture containing acetone, water, isopropyl alcohol, DMSO, Atplus 411F crop oil concentrate, and Triton® X-155 surfactant in a 48.5:39:10:1.5:1.0:0.02 v/v ratio to obtain spray solutions containing the highest application rates. Additional application rates were obtained by serial dilution of 12 mL of the high rate solution into a solution containing 2 mL of a 97:3 v/v mixture of acetone and DMSO and 10 mL of an aqueous mixture containing acetone, water, isopropyl alcohol, DMSO, Atplus 411F crop oil concentrate, and Triton X-155 surfactant in a 48.5:39:10:1.5:1.0:0.02 v/v ratio to obtain 1/2×, 1/4×, 1/8× and 1/16× rates of the high rate. Compound requirements are based upon a 12 mL application volume at a rate of 187 liters per hectare (L/ha). Formulated compounds were applied to the plant material with an overhead Mandel track sprayer equipped with 8002E nozzles calibrated to deliver 187 L/ha over an application area of 0.503 square meters (m^2) at a spray height of 18 inches (43 cm) above the average plant canopy height. Control plants were sprayed in the same manner with the solvent blank.
(§4) Treatments consisted of the methyl ester of 4-amino-3-chloro-6-(4-chloro-2-fluoro-3-methoxyphenyl)pyridine-2-carboxylic acid (Cmpd 1) as technical grade material and propyzamide (Kerb 50 W) alone and in combination.
(§5) The treated plants and control plants were placed in a greenhouse as described above and watered by subirrigation to prevent wash-off of the test compounds. After 14 d, the condition of the test plants as compared with that of the untreated plants was determined visually and scored on a scale of 0 to 100 percent where 0 corresponds to no injury and 100 corresponds to complete kill.
(§6) Colby's equation was used to determine the herbicidal effects expected from the mixtures (Colby, S. R. Calculation of the synergistic and antagonistic response of herbicide combinations. Weeds 1967, 15, 20-22). More specifically, the following equation was used to calculate the expected activity of mixtures containing two active ingredients, A and B: Expected=A+B−(A×B/100) A=observed efficacy of active ingredient A at the same concentration as used in the mixture; B=observed efficacy of active ingredient B at the same concentration as used in the mixture.

[5] = test system: EPHHL Euphorbia heterophylla L. (wild poinsettia); assay: Postemergent herbicidal activity, greenhouse; conditions: foliar, 14 d
Method: as §2, §3, §4, §5, §6

[6] = test system: VIOTR Viola tricolor L. (wild violet); assay: Postemergent herbicidal activity, greenhouse; conditions: foliar, 14 d
Method: as §2, §3, §4, §5, §6

[7] = test system: CIRAR Cirsium arvense (L.) Scop. (Canada thistle); assay: Postemergent herbicidal activity, greenhouse; conditions: foliar, 14 d
Method: as §2, §3, §4, §5, §6

[8] = test system: IPOHE Ipomoea hederacea (L.) Jacq. (ivyleaf morningglory); assay: Postemergent herbicidal activity, greenhouse; conditions: foliar, 14 d
Method: as §2, §3, §4, §5, §6

[9] = test system: STEME Stellaria media (L.) Vill. (common chickweed); assay: Postemergent herbicidal activity, greenhouse; conditions: foliar, 14 d
Method: as §2, §3, §4, §5, §6

[10] = test system: SETFA Setaria faberi Herrm. (giant foxtail); assay: Postemergent herbicidal activity, greenhouse; conditions: foliar, 14 d
Method: as §2, §3, §4, §5, §6

[11] = test system: BRSNW Brassica napus (winter oilseed rape); assay: Postemergent herbicidal activity, greenhouse; conditions: foliar, 14 d
Method: as §2, §3, §4, §5, §6

[12] = test system: CHEAL Chenopodium album L. (common lambsquarters); assay: Postemergent herbicidal activity, greenhouse; conditions: foliar, 14 d
Method: as §2, §3, §4, §5, §6

[13] = test system: GLXMA Glycine max (volunteer soybean); assay: Postemergent herbicidal activity, greenhouse; conditions: foliar, 14 d
Method: as §2, §3, §4, §5, §6

[14] = test system: POLCO Polygonum convolvulus L. (wild buckwheat); assay: Postemergent herbicidal activity, greenhouse; conditions: foliar, 14 d
Method: as §2, §3, §4, §5, §6

[15] = test system: AMARE Amaranthus retroflexus L. (redroot pigweed); assay: Postemergent herbicidal activity, greenhouse; conditions: foliar, 14 d
Method: as §2, §3, §4, §5, §6

winter oilseed rape = assay: Field trial, visual crop injury ratings; conditions: varying rates, crop Growth Stage 39-50, 32, 49, and 74 days after treatment, in each case
Method: Multiple small plot research experiments were conducted to evaluate efficacy and tolerance of winter oilseed rape to compositions described herein. Typical small plots (2-4×4-10 meters (m)) were used in growers' fields under natural conditions with normal commercial cultural practices. Backpack sprayers were used to apply all treatments based on unit area. The methyl ester of formula (I) and propyzamide were tested alone and in combination at varying rates. Application water volume was 150 L/ha. Crop stage was at Growth Stage 39-50. Visual crop injury ratings were collected 32, 49, and 74 days after treatment. […] The reported values are means.

[16] = Propyzamide 250 g ai/ha, 32 DAAA
[17] = Propyzamide 250 g ai/ha, 80 DAAA
[18] = Propyzamide 500 g ai/ha, 32 DAAA
[19] = Propyzamide 500 g ai/ha, 80 DAAA
[20] = Propyzamide 750 g ai/ha, 32 DAAA
[21] = Propyzamide 750 g ai/ha, 80 DAAA
[22] = Propyzamide 250 g ai/ha, 58 DAAA
[23] = Propyzamide 500 g ai/ha, 58 DAAA
[24] = Propyzamide 750 g ai/ha, 58 DAAA

## C#CC(C)(C)NC(=O)c1cc(Cl)cc(Cl)c1 [Propyzamide, 3,5-dichloro-N-(1,1-dimethylpropynyl)benzamide]
[1]; [16]
  % control rated visually, ob (observed): 43.8%
[1]; [17]
  % control rated visually, ob (observed): 100.0%
[1]; [18]
  % control rated visually, ob (observed): 60.0%
[1]; [19]
  % control rated visually, ob (observed): 100.0%
[1]; [20]
  % control rated visually, ob (observed): 54.3%
[1]; [21]
  % control rated visually, ob (observed): 100.0%
[2]; [16]
  % control rated visually, ob (observed): 5.0%
[2]; [22]
  % control rated visually, ob (observed): 17.5%
[2]; [17]
  % control rated visually, ob (observed): 22.5%
[2]; [18]
  % control rated visually, ob (observed): 20.0%
[2]; [23]
  % control rated visually, ob (observed): 35.0%
[2]; [19]
  % control rated visually, ob (observed): 28.8%
[2]; [20]
  % control rated visually, ob (observed): 18.8%
[2]; [24]
  % control rated visually, ob (observed): 25.0%
[2]; [21]
  % control rated visually, ob (observed): 33.8%
[3]; [16]
  % control rated visually, ob (observed): 12.5%
[3]; [22]
  % control rated visually, ob (observed): 12.5%
[3]; [17]
  % control rated visually, ob (observed): 45.0%
[3]; [18]
  % control rated visually, ob (observed): 15.0%
[3]; [23]
  % control rated visually, ob (observed): 67.5%
[3]; [19]
  % control rated visually, ob (observed): 95.0%
[3]; [20]
  % control rated visually, ob (observed): 37.5%
[3]; [24]
  % control rated visually, ob (observed): 92.5%
[3]; [21]
  % control rated visually, ob (observed): 98.3%
[4]; Propyzamide 285 g ai/ha
  % control rated visually, ob (observed): 5%
[4]; Propyzamide 570 g ai/ha
  % control rated visually, ob (observed): 0%
[5]; Propyzamide 285 g ai/ha
  % control rated visually, ob (observed): 0%
[5]; Propyzamide 570 g ai/ha
  % control rated visually, ob (observed): 0%
[6]; Propyzamide 285 g ai/ha
  % control rated visually, ob (observed): 0%
[6]; Propyzamide 570 g ai/ha
  % control rated visually, ob (observed): 0%
[7]; Propyzamide 285 g ai/ha
  % control rated visually, ob (observed): 0%
[7]; Propyzamide 570 g ai/ha
  % control rated visually, ob (observed): 0%
[8]; Propyzamide 285 g ai/ha
  % control rated visually, ob (observed): 10%
[8]; Propyzamide 570 g ai/ha
  % control rated visually, ob (observed): 17%
[9]; Propyzamide 285 g ai/ha
  % control rated visually, ob (observed): 7%
[9]; Propyzamide 570 g ai/ha
  % control rated visually, ob (observed): 75%
[10]; Propyzamide 285 g ai/ha
  % control rated visually, ob (observed): 0%
[10]; Propyzamide 570 g ai/ha
  % control rated visually, ob (observed): 0%
[11]; Propyzamide 285 g ai/ha
  % control rated visually, ob (observed): 5%
[11]; Propyzamide 570 g ai/ha
  % control rated visually, ob (observed): 20%
[12]; Propyzamide 285 g ai/ha
  % control rated visually, ob (observed): 0%
[12]; Propyzamide 570 g ai/ha
  % control rated visually, ob (observed): 0%
[13]; Propyzamide 285 g ai/ha
  % control rated visually, ob (observed): 10%
[13]; Propyzamide 570 g ai/ha
  % control rated visually, ob (observed): 15%
[14]; Propyzamide 285 g ai/ha
  % control rated visually, ob (observed): 5%
[14]; Propyzamide 570 g ai/ha
  % control rated visually, ob (observed): 15%
[15]; Propyzamide 285 g ai/ha
  % control rated visually, ob (observed): 0%
[15]; Propyzamide 570 g ai/ha
  % control rated visually, ob (observed): 10%
Winter oilseed rape
  Visual crop injury rating: 0 % injury

Reference: patent US9730446B2, “Herbicidal compositions comprising 4-amino-3-chloro-6-(4-chloro-2-fluoro-3-methoxyphenyl)pyridine-2-carboxylic acid or a derivative thereof and propyzamide” (Dow AgroSciences LLC, priority 2013, dated 2017)
